The source of these data is patent publication US6861419B2, “Substituted 1, 4-thiazepine and analogs as activators of caspases and inducers of apoptosis and the use thereof” (Cytovia, Inc., priority 2000, dated 2005).

Test [1] concerns T-47D. Description: Caspase cascade activation (N-(Ac-DEVD)-N'-ethoxycarbonyl-R110 fluorogenic substrate) in T-47D cells. The class given is cell-based. The conditions noted are these: T47D; human breast cancer cell line T-47D, 24 hours incubation with compound, 3 hour substrate incubation; read-out: Caspase Potency EC50 (nM) T-47D. How it is done:
(§1) Human breast cancer cell lines T-47D and ZR-75-1 were grown according to media component mixtures designated by American Type Culture Collection +10% fetal calf sera (FCS) (Life Technologies, Inc.) in a 5% CO2-95% humidity incubator as 37° C. The T-47 and ZR-75-1 cells were maintained at a cell density between 30 and 80% confluency at a cell density of 0.1 to 0.6×10^6 cells/mL. Cells were harvested at 600 xg and resuspended at 0.65×10^6 cells/mL into appropriate media +10% FCS. An aliquot of 45 μL of cells was added to a well of a 96-well microtiter plate containing 5 μL of a 10% DMSO in RPMI-1640 media solution containing 1.6 to 100 μM of test compound (0.16 to 10 μM final).
(§2) An aliquot of 45 μL of cells was added to a well of a 96-well microtiter plate containing 5 μL of a 10% DMSO in RPMI-1640 media solution without test compound as the control sample. The samples were mixed by agitation and then incubated at 37° C. for 24 hours in a 5% CO2-95% humidity incubator. After incubation, the samples were removed from the incubator and 50 μL of a solution w containing […] of N-(Ac-DEVD)-N′-ethoxycarbonyl-R110 (SEQ ID NO:1) fluorogenic substrate (Cytovia, Inc.; WO99/18856), 20% sucrose (Sigma), 20 mM dithiothreitol (DTT) (Sigma), 200 mM NaCl (Sigma), 40 mM Na piperazine-N,N′-bis[2-ethanesulfonic acid] (PIPES) buffer pH 7.2 (Sigma), and 500 μg/mL lysolecithin (Calbiochem) was added. The samples were mixed by agitation and incubated at room temperature. Using a fluorescent plate reader (Model 1420 Wallac Instruments), an initial reading (T=0) was made approximately 1-2 minutes after addition of the substrate solution, employing excitation at 485 nm and emission at 530 nm, to determine the background fluorescence of the control sample. After the 3 hour incubation, the samples were read for fluorescence as above (T=3 hours).
(§3) The Relative Fluorescence Unit (RFU) values were used to calculate the sample readings as follows: RFU(T=3h)−Control RFU(T=0)=Net RFU(T=3h)
(§4) The level of caspase cascade activation was determined by the ratio of the net RFU value for the test compound to that of the control samples. The EC50 (nM) was determined by a sigmoidal dose-response calculation (Prism 2.0, GraphPad Software, Inc.). The compounds of the invention were determined to have caspase cascade activating effects by proceeding as in Example 8.

The subject of test [2] is ZR-75-1. The test is described as follows: Caspase cascade activation (N-(Ac-DEVD)-N'-ethoxycarbonyl-R110 fluorogenic substrate) in ZR-75-1 cells. It is filed as cell-based. The conditions noted are these: human breast cancer cell line ZR-75-1, 24 hours incubation with compound, 3 hour substrate incubation; read-out: Caspase Potency EC50 (nM) ZR-75-1. How it is done: as §1, §2, §3, §4

Each structure is given as a SMILES string.

The term EC50 denotes the concentration needed to bring the measured effect to its halfway point. In the case of `Cc1cc(O)c(C2=NCCSC(c3ccccc3Br)C2)c(=O)o1` (stereo not shown) [Compound 74, 3-[7-(2-bromo-phenyl)-2,3,6,7-tetrahydro-[1,4]thiazepin-5-yl]4-hydroxy-6-methyl-pyran-2-one], the EC50 is 3270 nM in test [1] and 2080 nM in test [2].
In the same order, the values of `COc1cccc(C2CC(c3c(O)cc(C)oc3=O)=NCCS2)c1` (stereo not shown) [Compound 72, 4-hydroxy-3-[7-(3-methoxy-phenyl)-2,3,6,7-tetrahydro-[1,4]thiazepin-5-yl]-6-methyl-pyran-2-one] are 3050 nM and 1950 nM.
For `CSc1ccc(C2CC(c3c(O)cc(C)oc3=O)=NCCS2)cc1` (stereo not shown) [Compound 70, 4-hydroxy-6-methyl-3-[7-(4-methylsulfanyl-phenyl)-2,3,6,7-tetrahydro-[1,4]thiazepin-5-yl]-pyran-2-one] the same measures were 345 nM and 163 nM.
Regarding `Cc1cc(O)c(C2=NCCSC(c3ccc(Cl)c(Cl)c3)C2)c(=O)o1` (stereo not shown) [Compound 79, 3-[7-(3,4-dichloro-phenyl)-2,3,6,7-tetrahydro-[1,4]thiazepin-5-yl]-4-hydroxy-6-methyl-pyran-2-one], the EC50 in test [1] was 557 nM; in test [2], 349 nM.
Turning to `Cc1ccc(C2CC(c3c(O)cc(C)oc3=O)=Nc3ccccc3S2)cc1` (stereo not shown) [Compound 85, 4-hydroxy-6-methyl-3-(2-p-tolyl-2,3-dihydro-benzo[b][1,4]thiazepin-4-yl)-pyran-2-one], the EC50 in test [1] amounted to 6930 nM; in test [2], 4210 nM.
